Values of other authors, collected in patent US11690800B2, “Non-irritating, non-blurring, photostable ophthalmic sunscreen composition” (A. EBBIE SOROUDI, M.D., M.S., A PROFESSIONAL MEDICAL …, priority 2014, dated 2023).

How the values were obtained:
[1] = formulated into a dermatologic sunscreen
[2] = oil phase and water phase of a sunscreen

CC(C)(C)CC(C)(C)c1cc(Cc2cc(C(C)(C)CC(C)(C)C)cc(-n3nc4ccccc4n3)c2O)c(O)c(-n2nc3ccccc3n2)c1 [Bisoctrizole, 2,2′-methanediylbis[6-(2H-benzotriazol-2-yl)-4-(2,4,4-trimethylpentan-2-yl)phenol]]
skin penetration [1]: minimal skin penetration
dissolution in oil or water phase [2]: dissolves poorly in both
